# Assay results as given in PubChem BioAssay (NCI).
#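 Step 1: Grow cells in 96-well plates. Step 2: Expose to compound for 48 hours at 5 concentrations. Step 3: Interpolate endpoints linearly; if unreached, use highest concentration. GI50: concentration for 50% inhibition of growth. The concentration for full growth arrest is given as TGI.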
# What was measured:
# Assay in all cases: inhibition of tumour cell growth, NCI panel, 48 h
# ACHN renal = tested on: ACHN renal
# MDA-MB-435 = tested on: MDA-MB-435
# SNB-19 CNS = tested on: SNB-19 CNS
# NCI-H460 lung = tested on: NCI-H460 lung
# HOP-62 NSCLC = tested on: HOP-62 NSCLC
# UACC-257 melanoma = tested on: UACC-257 melanoma
# SF-539 CNS = tested on: SF-539 CNS
# MOLT-4 leukemia = tested on: MOLT-4 leukemia
# NCI-H23 lung = tested on: NCI-H23 lung
# HT29 colon = tested on: HT29 colon
# HCC-2998 colon = tested on: HCC-2998 colon
# MDA-MB-231 breast = tested on: MDA-MB-231 breast
# NCI-H226 lung = tested on: NCI-H226 lung
# LOX IMVI melanoma = tested on: LOX IMVI melanoma
# OVCAR-4 ovarian = tested on: OVCAR-4 ovarian
# KM12 colon = tested on: KM12 colon
# RXF 393 renal = tested on: RXF 393 renal
# M14 melanoma = tested on: M14 melanoma
# OVCAR-8 ovarian = tested on: OVCAR-8 ovarian
# HOP-92 NSCLC = tested on: HOP-92 NSCLC
# 786-0 renal = tested on: 786-0 renal
# HCT-15 colon = tested on: HCT-15 colon
# SF-268 CNS = tested on: SF-268 CNS
# U251 CNS = tested on: U251 CNS
# DU-145 prostate = tested on: DU-145 prostate
# UO-31 renal = tested on: UO-31 renal
# TK-10 renal = tested on: TK-10 renal
# EKVX NSCLC = tested on: EKVX NSCLC
# T-47D breast = tested on: T-47D breast
# SK-OV-3 ovarian = tested on: SK-OV-3 ovarian
# SF-295 CNS = tested on: SF-295 CNS
# OVCAR-5 ovarian = tested on: OVCAR-5 ovarian
# SNB-75 CNS = tested on: SNB-75 CNS
# PC-3 prostate = tested on: PC-3 prostate
# MCF7 breast = tested on: MCF7 breast
# A549 NSCLC = tested on: A549 NSCLC
# A498 renal = tested on: A498 renal
# UACC-62 melanoma = tested on: UACC-62 melanoma
# HS 578T breast = tested on: HS 578T breast
# COLO 205 colon = tested on: COLO 205 colon
# CAKI-1 renal = tested on: CAKI-1 renal
# SN12C renal = tested on: SN12C renal
# BT-549 breast = tested on: BT-549 breast
# SK-MEL-5 melanoma = tested on: SK-MEL-5 melanoma
# OVCAR-3 ovarian = tested on: OVCAR-3 ovarian
# NCI/ADR-RES ovarian = tested on: NCI/ADR-RES ovarian
# SK-MEL-28 melanoma = tested on: SK-MEL-28 melanoma
# SW-620 colon = tested on: SW-620 colon
# IGROV1 ovarian = tested on: IGROV1 ovarian
# RPMI-8226 leukemia = tested on: RPMI-8226 leukemia
# HCT-116 colon = tested on: HCT-116 colon
# K-562 leukemia = tested on: K-562 leukemia
# CCRF-CEM leukemia = tested on: CCRF-CEM leukemia
# SR leukemia = tested on: SR leukemia
# NCI-H522 lung = tested on: NCI-H522 lung
# SK-MEL-2 melanoma = tested on: SK-MEL-2 melanoma
smiles,measurement,setting,value
N#Cc1c(N/N=C/c2c(Cl)cccc2Cl)nc(N)nc1N1CCOCC1,GI50,ACHN renal,5.48 µM
same,TGI,ACHN renal,> 100 µM
same,GI50,MDA-MB-435,3.26 µM
same,TGI,MDA-MB-435,36 µM
same,GI50,SNB-19 CNS,34.5 µM
same,TGI,SNB-19 CNS,> 100 µM
same,GI50,NCI-H460 lung,5.32 µM
same,TGI,NCI-H460 lung,> 100 µM
same,GI50,HOP-62 NSCLC,13.9 µM
same,TGI,HOP-62 NSCLC,> 100 µM
same,GI50,UACC-257 melanoma,6.77 µM
same,TGI,UACC-257 melanoma,> 100 µM
same,GI50,SF-539 CNS,7.24 µM
same,TGI,SF-539 CNS,30.4 µM
same,GI50,MOLT-4 leukemia,4.08 µM
same,TGI,MOLT-4 leukemia,40.6 µM
same,GI50,NCI-H23 lung,44.5 µM
same,TGI,NCI-H23 lung,> 100 µM
same,GI50,HT29 colon,19.4 µM
same,TGI,HT29 colon,> 100 µM
same,GI50,HCC-2998 colon,3.96 µM
same,TGI,HCC-2998 colon,12.8 µM
same,GI50,MDA-MB-231 breast,11.7 µM
same,TGI,MDA-MB-231 breast,56.1 µM
same,GI50,NCI-H226 lung,24.5 µM
same,TGI,NCI-H226 lung,> 100 µM
same,GI50,LOX IMVI melanoma,8.97 µM
same,TGI,LOX IMVI melanoma,> 100 µM
same,GI50,OVCAR-4 ovarian,> 100 µM
same,TGI,OVCAR-4 ovarian,> 100 µM
same,GI50,KM12 colon,4.06 µM
same,TGI,KM12 colon,71.7 µM
same,GI50,RXF 393 renal,16.6 µM
same,TGI,RXF 393 renal,94.2 µM
same,GI50,M14 melanoma,6.79 µM
same,TGI,M14 melanoma,38.7 µM
same,GI50,OVCAR-8 ovarian,60.6 µM
same,TGI,OVCAR-8 ovarian,> 100 µM
same,GI50,HOP-92 NSCLC,12.4 µM
same,TGI,HOP-92 NSCLC,> 100 µM
same,GI50,786-0 renal,5.82 µM
same,TGI,786-0 renal,> 100 µM
same,GI50,HCT-15 colon,4.52 µM
same,TGI,HCT-15 colon,57.4 µM
same,GI50,SF-268 CNS,16.5 µM
same,TGI,SF-268 CNS,> 100 µM
same,GI50,U251 CNS,15.6 µM
same,TGI,U251 CNS,> 100 µM
same,GI50,DU-145 prostate,16 µM
same,TGI,DU-145 prostate,> 100 µM
same,GI50,UO-31 renal,14.5 µM
same,TGI,UO-31 renal,86.4 µM
same,GI50,TK-10 renal,20.8 µM
same,TGI,TK-10 renal,92 µM
same,GI50,EKVX NSCLC,54.1 µM
same,TGI,EKVX NSCLC,> 100 µM
same,GI50,T-47D breast,48 µM
same,TGI,T-47D breast,> 100 µM
same,GI50,SK-OV-3 ovarian,20.2 µM
same,TGI,SK-OV-3 ovarian,> 100 µM
same,GI50,SF-295 CNS,4.69 µM
same,TGI,SF-295 CNS,> 100 µM
same,GI50,OVCAR-5 ovarian,43.4 µM
same,TGI,OVCAR-5 ovarian,> 100 µM
same,GI50,SNB-75 CNS,35.5 µM
same,TGI,SNB-75 CNS,> 100 µM
same,GI50,PC-3 prostate,3.91 µM
same,TGI,PC-3 prostate,95.8 µM
same,GI50,MCF7 breast,3.18 µM
same,TGI,MCF7 breast,> 100 µM
same,GI50,A549 NSCLC,19.1 µM
same,TGI,A549 NSCLC,> 100 µM
same,GI50,A498 renal,2.67 µM
same,TGI,A498 renal,15.5 µM
same,GI50,UACC-62 melanoma,3.7 µM
same,TGI,UACC-62 melanoma,31.4 µM
same,GI50,HS 578T breast,13.3 µM
same,TGI,HS 578T breast,82.1 µM
same,GI50,COLO 205 colon,14.9 µM
same,TGI,COLO 205 colon,> 100 µM
same,GI50,CAKI-1 renal,12.1 µM
same,TGI,CAKI-1 renal,> 100 µM
same,GI50,SN12C renal,16.8 µM
same,TGI,SN12C renal,85.7 µM
same,GI50,BT-549 breast,18 µM
same,TGI,BT-549 breast,> 100 µM
same,GI50,SK-MEL-5 melanoma,3.71 µM
same,TGI,SK-MEL-5 melanoma,24 µM
same,GI50,OVCAR-3 ovarian,3.6 µM
same,TGI,OVCAR-3 ovarian,> 100 µM
same,GI50,NCI/ADR-RES ovarian,9.98 µM
same,TGI,NCI/ADR-RES ovarian,64.6 µM
same,GI50,SK-MEL-28 melanoma,82.1 µM
same,TGI,SK-MEL-28 melanoma,> 100 µM
same,GI50,SW-620 colon,6.11 µM
same,TGI,SW-620 colon,> 100 µM
same,GI50,IGROV1 ovarian,3.95 µM
same,TGI,IGROV1 ovarian,34.6 µM
same,GI50,RPMI-8226 leukemia,3.86 µM
same,TGI,RPMI-8226 leukemia,26.2 µM
same,GI50,HCT-116 colon,4.72 µM
same,TGI,HCT-116 colon,31.3 µM
same,GI50,K-562 leukemia,2.34 µM
same,TGI,K-562 leukemia,11.3 µM
same,GI50,CCRF-CEM leukemia,6.27 µM
same,TGI,CCRF-CEM leukemia,> 100 µM
same,GI50,SR leukemia,1.1 µM
same,TGI,SR leukemia,3.18 µM
same,GI50,NCI-H522 lung,4.35 µM
same,TGI,NCI-H522 lung,27.3 µM
same,GI50,SK-MEL-2 melanoma,8.3 µM
same,TGI,SK-MEL-2 melanoma,81.8 µM
